Results published in the NIST ThermoML archive (doi:10.1016/j.jct.2012.03.015).
± gives the expanded uncertainty stated by the source.

Experiment: activity coefficient (dimensionless); of the first substance listed, at infinite dilution; xn = mol fraction of the nth substance listed
Details: 101 kPa, Liquid, Chromatography, x1 = 0

Row | Compound | activity coefficient (318.15 K) | activity coefficient (328.15 K) | activity coefficient (338.15 K) | activity coefficient (348.15 K) | activity coefficient (358.15 K) | activity coefficient (368.15 K)
1 | C1=CCCCC1 [cyclohexene] + COCC[N+]1(C)CCCC1.O=S(=O)([N-]S(=O)(=O)C(F)(F)F)C(F)(F)F | 6.04 ± 0.41 | 5.82 ± 0.4 | 5.63 ± 0.38 | 5.44 ± 0.37 | 5.27 ± 0.36 | 5.1 ± 0.35
2 | CCCCCCCCCC [decane] + COCC[N+]1(C)CCCC1.O=S(=O)([N-]S(=O)(=O)C(F)(F)F)C(F)(F)F | 83.1 ± 5.7 | 75.5 ± 5.2 | 68.1 ± 4.7 | 61.8 ± 4.2 | 56.1 ± 3.8 | 51.3 ± 3.5
3 | c1ccsc1 [thiophene] + COCC[N+]1(C)CCCC1.O=S(=O)([N-]S(=O)(=O)C(F)(F)F)C(F)(F)F | 0.885 ± 0.056 | 0.897 ± 0.057 | 0.909 ± 0.058 | 0.918 ± 0.058 | 0.929 ± 0.059 | 0.938 ± 0.059
4 | COC(C)=O [methyl ethanoate] + COCC[N+]1(C)CCCC1.O=S(=O)([N-]S(=O)(=O)C(F)(F)F)C(F)(F)F | 0.71 ± 0.05 | 0.73 ± 0.05 | 0.74 ± 0.05 | 0.76 ± 0.05 | 0.77 ± 0.05 | 0.78 ± 0.05
5 | C=C(C)c1ccccc1 [(1-methylethenyl)benzene] + COCC[N+]1(C)CCCC1.O=S(=O)([N-]S(=O)(=O)C(F)(F)F)C(F)(F)F | 1.87 ± 0.13 | 1.93 ± 0.13 | 1.98 ± 0.13 | 2.03 ± 0.14 | 2.08 ± 0.14 | 2.12 ± 0.14
6 | C=CCCC [1-pentene] + COCC[N+]1(C)CCCC1.O=S(=O)([N-]S(=O)(=O)C(F)(F)F)C(F)(F)F | 6.65 ± 0.45 | 6.5 ± 0.44 | 6.35 ± 0.43 | 6.17 ± 0.42 | 6.07 ± 0.41 | 5.91 ± 0.4
7 | C#CCCCCCC [1-octyne] + COCC[N+]1(C)CCCC1.O=S(=O)([N-]S(=O)(=O)C(F)(F)F)C(F)(F)F | 6.85 ± 0.47 | 6.73 ± 0.46 | 6.58 ± 0.45 | 6.48 ± 0.44 | 6.37 ± 0.43 | 6.27 ± 0.43
8 | O [water] + COCC[N+]1(C)CCCC1.O=S(=O)([N-]S(=O)(=O)C(F)(F)F)C(F)(F)F | 3.15 ± 0.21 | 2.81 ± 0.19 | 2.51 ± 0.17 | 2.26 ± 0.15 | 2.05 ± 0.14 | 1.85 ± 0.12
9 | c1ccncc1 [pyridine] + COCC[N+]1(C)CCCC1.O=S(=O)([N-]S(=O)(=O)C(F)(F)F)C(F)(F)F | 0.602 ± 0.042 | 0.61 ± 0.043 | 0.618 ± 0.043 | 0.625 ± 0.043 | 0.633 ± 0.044 | 0.639 ± 0.044
10 | CCC(=O)CC [pentan-3-one] + COCC[N+]1(C)CCCC1.O=S(=O)([N-]S(=O)(=O)C(F)(F)F)C(F)(F)F | 0.831 ± 0.054 | 0.851 ± 0.055 | 0.871 ± 0.056 | 0.887 ± 0.056 | 0.905 ± 0.057 | 0.919 ± 0.058
11 | C=CCCCCCCCC [1-decene] + COCC[N+]1(C)CCCC1.O=S(=O)([N-]S(=O)(=O)C(F)(F)F)C(F)(F)F | 41.7 ± 2.9 | 39 ± 2.7 | 36.4 ± 2.5 | 33.8 ± 2.3 | 31.7 ± 2.2 | 29.8 ± 2
12 | CCCCO [butan-1-ol] + COCC[N+]1(C)CCCC1.O=S(=O)([N-]S(=O)(=O)C(F)(F)F)C(F)(F)F | 2.87 ± 0.2 | 2.6 ± 0.2 | 2.35 ± 0.16 | 2.16 ± 0.15 | 1.98 ± 0.13 | 1.84 ± 0.12
13 | CCCCCCCC [octane] + COCC[N+]1(C)CCCC1.O=S(=O)([N-]S(=O)(=O)C(F)(F)F)C(F)(F)F | 40.5 ± 2.8 | 36.9 ± 2.5 | 33.9 ± 2.3 | 31.4 ± 2.1 | 29 ± 2 | 27 ± 1.8
14 | CC#N [acetonitrile] + COCC[N+]1(C)CCCC1.O=S(=O)([N-]S(=O)(=O)C(F)(F)F)C(F)(F)F | 0.467 ± 0.036 | 0.469 ± 0.037 | 0.472 ± 0.037 | 0.474 ± 0.037 | 0.477 ± 0.037 | 0.479 ± 0.037
15 | C=Cc1ccccc1 [styrene] + COCC[N+]1(C)CCCC1.O=S(=O)([N-]S(=O)(=O)C(F)(F)F)C(F)(F)F | 1.29 ± 0.08 | 1.32 ± 0.09 | 1.33 ± 0.09 | 1.36 ± 0.09 | 1.37 ± 0.09 | 1.39 ± 0.09
16 | CCc1ccccc1 [ethylbenzene] + COCC[N+]1(C)CCCC1.O=S(=O)([N-]S(=O)(=O)C(F)(F)F)C(F)(F)F | 2.23 ± 0.15 | 2.24 ± 0.15 | 2.24 ± 0.15 | 2.25 ± 0.15 | 2.25 ± 0.15 | 2.26 ± 0.15

Row | Compound | activity coefficient (318.15 K) | activity coefficient (328.15 K) | activity coefficient (338.15 K) | activity coefficient (348.15 K) | activity coefficient (358.15 K) | activity coefficient (368.15 K)
17 | CCCC=O [butanal] + COCC[N+]1(C)CCCC1.O=S(=O)([N-]S(=O)(=O)C(F)(F)F)C(F)(F)F | 0.808 ± 0.052 | 0.823 ± 0.053 | 0.838 ± 0.054 | 0.851 ± 0.055 | 0.864 ± 0.055 | 0.876 ± 0.056
18 | C=CCCCCC [1-heptene] + COCC[N+]1(C)CCCC1.O=S(=O)([N-]S(=O)(=O)C(F)(F)F)C(F)(F)F | 14.1 ± 1 | 13.4 ± 0.9 | 12.9 ± 0.9 | 12.3 ± 0.8 | 11.8 ± 0.8 | 11.4 ± 0.8
19 | CCCC(C)=O [pentan-2-one] + COCC[N+]1(C)CCCC1.O=S(=O)([N-]S(=O)(=O)C(F)(F)F)C(F)(F)F | 0.83 ± 0.05 | 0.84 ± 0.05 | 0.86 ± 0.06 | 0.87 ± 0.06 | 0.89 ± 0.06 | 0.9 ± 0.06
20 | C=CCCCC [hex-1-ene] + COCC[N+]1(C)CCCC1.O=S(=O)([N-]S(=O)(=O)C(F)(F)F)C(F)(F)F | 9.74 ± 0.66 | 9.34 ± 0.64 | 8.92 ± 0.61 | 8.61 ± 0.59 | 8.24 ± 0.56 | 7.96 ± 0.54
21 | C1CCCCCCC1 [cyclooctane] + COCC[N+]1(C)CCCC1.O=S(=O)([N-]S(=O)(=O)C(F)(F)F)C(F)(F)F | 20.7 ± 1.4 | 19 ± 1.3 | 17.4 ± 1.2 | 16.2 ± 1.1 | 15 ± 1 | 14 ± 1
22 | CCC(C)(C)C [2,2-dimethylbutane] + COCC[N+]1(C)CCCC1.O=S(=O)([N-]S(=O)(=O)C(F)(F)F)C(F)(F)F | 15.1 ± 1 | 14.4 ± 1 | 13.7 ± 0.9 | 13.1 ± 0.9 | 12.6 ± 0.9 | 12 ± 0.8
23 | CCCCCCC [heptane] + COCC[N+]1(C)CCCC1.O=S(=O)([N-]S(=O)(=O)C(F)(F)F)C(F)(F)F | 28 ± 1.9 | 25.9 ± 1.8 | 24.2 ± 1.7 | 22.6 ± 1.5 | 21.1 ± 1.4 | 19.7 ± 1.3
24 | COC(C)(C)C [2-methoxy-2-methylpropane] + COCC[N+]1(C)CCCC1.O=S(=O)([N-]S(=O)(=O)C(F)(F)F)C(F)(F)F | 2.76 ± 0.19 | 2.79 ± 0.19 | 2.81 ± 0.19 | 2.84 ± 0.19 | 2.86 ± 0.19 | 2.89 ± 0.2
25 | CCC(=O)OC [methyl propanoate] + COCC[N+]1(C)CCCC1.O=S(=O)([N-]S(=O)(=O)C(F)(F)F)C(F)(F)F | 0.92 ± 0.06 | 0.94 ± 0.06 | 0.96 ± 0.06 | 0.98 ± 0.06 | 0.99 ± 0.06 | 1.01 ± 0.06
26 | CC(C)OC(C)C [diisopropyl ether] + COCC[N+]1(C)CCCC1.O=S(=O)([N-]S(=O)(=O)C(F)(F)F)C(F)(F)F | 6.63 ± 0.45 | 6.55 ± 0.45 | 6.46 ± 0.44 | 6.39 ± 0.44 | 6.31 ± 0.43 | 6.23 ± 0.42
27 | Cc1ccc(C)cc1 [1,4-dimethylbenzene] + COCC[N+]1(C)CCCC1.O=S(=O)([N-]S(=O)(=O)C(F)(F)F)C(F)(F)F | 2.15 ± 0.15 | 2.17 ± 0.15 | 2.18 ± 0.15 | 2.2 ± 0.15 | 2.21 ± 0.15 | 2.23 ± 0.15
28 | Cc1cccc(C)c1 [1,3-dimethylbenzene] + COCC[N+]1(C)CCCC1.O=S(=O)([N-]S(=O)(=O)C(F)(F)F)C(F)(F)F | 2.14 ± 0.15 | 2.16 ± 0.15 | 2.17 ± 0.15 | 2.19 ± 0.15 | 2.2 ± 0.15 | 2.22 ± 0.15
29 | CC(C)(C)O [2-methylpropan-2-ol] + COCC[N+]1(C)CCCC1.O=S(=O)([N-]S(=O)(=O)C(F)(F)F)C(F)(F)F | 1.92 ± 0.13 | 1.79 ± 0.12 | 1.67 ± 0.11 | 1.56 ± 0.1 | 1.48 ± 0.1 | 1.4 ± 0.09
30 | c1ccccc1 [benzene] + COCC[N+]1(C)CCCC1.O=S(=O)([N-]S(=O)(=O)C(F)(F)F)C(F)(F)F | 1.03 ± 0.06 | 1.04 ± 0.07 | 1.06 ± 0.07 | 1.07 ± 0.07 | 1.08 ± 0.07 | 1.09 ± 0.07
31 | C1COCCO1 [1,4-dioxane] + COCC[N+]1(C)CCCC1.O=S(=O)([N-]S(=O)(=O)C(F)(F)F)C(F)(F)F | 0.66 ± 0.05 | 0.68 ± 0.05 | 0.7 ± 0.05 | 0.72 ± 0.05 | 0.74 ± 0.05 | 0.76 ± 0.05
